Experimental data from paper PMC3960879 (Biology, 2013).
Where two headings read alike, the source gives them in different places.

Assays:
[1] = target: T1, F17aG receptor-binding domain (Escherichia coli, UniProt Q99003); assay: biochemical; details: SPR steady state, 25 °C, pH 7.4
T1 construct: variants of the lectin domains with oligolysine (4Lys) tails have been constructed; made in house; host or cells: E. coli (periplasm)
Protocol: The affinity profiles were determined by surface plasmon resonance (SPR) measurements using a BiaCore 3000 instrument (GE Healthcare). […] The proteins were covalently immobilized on CM5 sensor chips (Biacore AB) to an average density of 2000 RU (resonance units in pg/mm^2). On each chip, one flow cell was coated with a camel single domain antibody for use as a reference cell. The other three flow cells (Fc2, Fc3 and Fc4) were coated with three different F17G variants. Carbohydrate concentrations ranging from 10 µM to 10 mM in running buffer (20 mM Hepes, pH 7.4; 150 mM NaCl; 3 mM EDTA and 0.005% surfactant Tween 20) were incubated for one minute on all flow cells simultaneously, at 25 °C and at a flow rate of 30 µL/min. Complete dissociation of the carbohydrates in running buffer was verified before starting a new binding cycle. All binding cycles were performed in duplicate, including a zero concentration cycle (injection of pure running buffer). All analysis was done using the BIAeval software. In each case the equilibrium resonance signal from the reference cell was subtracted from that of the various F17G flow cells (2-1, 3-1, 4-1). A Langmuir binding isotherm with a 1:1 stoichiometry was fitted to the data, from which the equilibrium dissociation constants, Kd, were obtained.

F17eG lectin domain = assay: CFG mammalian printed glycan array version 2 (experiment 400), F17eG; format: binding, Escherichia coli; details: CFG glycan array version 2; F17G at 200 µg/mL; SEM in parentheses
Excerpt: (§1) The slide was dried under a stream of nitrogen.

F17fG lectin domain = assay: CFG mammalian printed glycan array version 2 (experiment 400), F17fG; format: binding, Escherichia coli; details: CFG glycan array version 2; F17G at 200 µg/mL; SEM in parentheses
Excerpt: as §1

F17dG lectin domain = F17dG lectin domain (Escherichia coli, UniProt Q47199); details: CFG glycan array version 2; F17G at 200 µg/mL; SEM in parentheses
Protocol: (§2) A microarray presenting 264 different glycans (mammalian printed array version 2) was used to evaluate if the F17G variant lectin domains differ in the range of glycan receptors that they recognize, thereby establishing tropism. The microarray was set up within the Consortium for Functional Glycomics (CFG) ([20], and supplemental data). Binding of F17G (200 µg/mL) was detected using anti-F17G polyclonal rabbit IgG (10 µg/mL), followed by fluorescently labelled goat anti-rabbit polyclonal antibodies (IgG-488, 5 µg/mL).
(§3) A microarray presenting 264 different glycans (mammalian printed array version 2 from the CFG, experiment 400) was used to evaluate whether the F17G variant lectin domains differ in the range of glycan receptors that they can recognize, thereby establishing strain-dependent tropism. […] The glycan array screening has been repeated for F17aG only on printed array version 4.1 (experiment 2053) (Figure 1).
(§4) Printed array version 2 at the Consortium for Functional Glycomics was used for glycan array screening of the variant F17G receptor binding domains. Slides were printed, with six replicates for each glycan, using glycan spotting concentrations of 100 μM, at the Consortium Carbohydrate Synthesis/Protein Expression Core D located at the Scripps Research Institute onto Schott Nexterion H slides (Schott Cat. No. 1070936B). Slide conditioning: preprinted slides were soaked in deionized water for 5 minutes at room temperature and dried under a stream of nitrogen. TSM buffer (20 mM Tris-HCl, pH 7.4, or MOPS 20 mM; 150 mM NaCl; 2 mM CaCl2, 2 mM MgCl2) was used as wash buffer (TSM buffer + 0.05% Tween 20) or binding buffer (TSM buffer + 0.05% Tween 20 + 1% BSA). (1) F17G was diluted to 200 μg/mL (Figure 1) in TSM binding buffer. (2) 50 μL of F17G was applied to the printed surface and coverslipped. (3) The slide was incubated, protected from light, in a humidified chamber for 1 hour at RT. (4) The slide was washed once in TSM wash buffer. 50 μL of the anti-F17G (10 μg/mL) polyclonal rabbit IgG were applied, coverslipped and incubated for 1 h at RT. (5) The slide was washed once in TSM wash buffer. Fifty μL of fluorescently labelled secondary goat anti-rabbit polyclonal antibodies (IgG-488, 5 µg/mL) were applied, coverslipped and incubated for 1 h at RT. (6) Slide was removed, followed by the coverslip, and washed for 10 s each in TSM wash buffer, TSM wash buffer lacking Tween 20, and deionized water. The slide was dried under a stream of nitrogen. (7) The binding image was read in a Perkin Elmer Microscanarray XL4000 scanner and tiff file of image stored. (8) Image analysis was performed using Imagene (V.6) image analysis software. (9) Raw data results files were generated in Excel format and uploaded to the Consortium database as .dat files. (10) Imagene data was uploaded to the database as .txt files.

F17bG lectin domain = F17bG lectin domain (Escherichia coli, UniProt Q47200); details: CFG glycan array version 2; F17G at 200 µg/mL; SEM in parentheses
Protocol: as §2, §3, §4

F17aG lectin domain = F17aG lectin domain (Escherichia coli, UniProt Q99003); details: CFG glycan array version 2; F17G at 200 µg/mL; SEM in parentheses
Protocol: as §2, §3, §4

[2] = read-out: Affinity range (Kd class), F17aG
[3] = good fit for at least three related experiments, read-out: dissociation constant Kd, F17aG

Sequence of F17bG lectin domain (Q47200 23-199): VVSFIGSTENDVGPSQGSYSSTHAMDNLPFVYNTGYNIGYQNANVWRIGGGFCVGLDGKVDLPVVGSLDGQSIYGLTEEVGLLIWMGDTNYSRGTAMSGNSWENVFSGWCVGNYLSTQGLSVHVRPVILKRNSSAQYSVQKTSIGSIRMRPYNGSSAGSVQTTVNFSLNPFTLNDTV
Sequence of F17dG lectin domain (Q47199 23-199): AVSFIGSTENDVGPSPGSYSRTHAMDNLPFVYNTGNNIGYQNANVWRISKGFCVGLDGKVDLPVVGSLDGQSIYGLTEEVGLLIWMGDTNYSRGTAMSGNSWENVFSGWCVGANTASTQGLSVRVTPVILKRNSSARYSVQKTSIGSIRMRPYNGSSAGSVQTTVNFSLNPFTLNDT
Sequence of F17aG lectin domain (Q99003 23-199): as the sequence (Q47199 23-199) above, with P16L, N33D, G35R, N37K, R47H, N90K counted along it
T1 sequence (Q99003 23-199): as the sequence (Q47199 23-199) above, with P16L, N33D, G35R, N37K, R47H, N90K counted along it

Molecule | Kd [1, 2] [mM] | Relative Fluorescence Units (RFU), averaged over six replicates, F17eG (F17eG lectin domain) | Relative Fluorescence Units (RFU), averaged over six replicates, F17fG (F17fG lectin domain) | Relative Fluorescence Units (RFU), averaged over six replicates, F17dG (F17dG lectin domain) | Relative Fluorescence Units (RFU), averaged over six replicates, F17bG (F17bG lectin domain) | Relative Fluorescence Units (RFU), averaged over six replicates, F17aG (F17aG lectin domain) | Kd [1, 3] [mM]
CC(=O)N[C@H]1[C@H](O[C@H]2[C@@H](O)[C@@H](CO)O[C@@H](O[C@H]3[C@H](O)[C@@H](O)C(O)O[C@@H]3CO)[C@@H]2O)O[C@H](CO)[C@@H](O)[C@@H]1O[C@@H]1O[C@H](CO)[C@H](O)[C@H](O)[C@H]1O[C@@H]1O[C@@H](C)[C@@H](O)[C@@H](O)[C@@H]1O (stereo partly drawn) [Fucα1,2Galβ1,3GlcNAcβ1,3Galβ1,4Glc] | > 100 | – | – | – | – | – | –
COc1ccc(O[C@@H]2O[C@H](CO)[C@@H](O[C@@H]3O[C@H](CO)[C@H](O)[C@H](O)[C@H]3NC(C)=O)[C@H](O)[C@H]2NC(C)=O)cc1 [GalNAcβ1,4GlcNAcβ1-methoxy phenyl] | 1 to 10 | – | – | – | – | – | –
CC(=O)N[C@H]1[C@H](OC[C@H]2O[C@H](OCCCN)[C@H](NC(C)=O)[C@@H](O[C@@H]3O[C@H](CO)[C@H](O)[C@H](O)[C@H]3O)[C@H]2O)O[C@H](CO)[C@@H](O)[C@@H]1O [Galβ1,3(GlcNAcβ1,6)GalNAcα-Sp8] | – | 50,893 (5,540) RFU | 3,195 (811) RFU | 3,850 (364) RFU | 6,215 (1,046) RFU | 10,256 (1,410) RFU | –
CC(=O)N[C@H]1C(O)O[C@H](CO)[C@H](O)[C@@H]1O[C@@H]1O[C@H](CO)[C@H](O)[C@H](O)[C@H]1O (stereo partly drawn) [Galβ1,3GalNAc] | 10 to 100 | – | – | – | – | – | –
CC(=O)N[C@H]1[C@H](O[C@H]2[C@@H](O)[C@@H](CO)O[C@@H](O[C@H]3[C@H](O)[C@@H](O)C(O)O[C@@H]3CO)[C@@H]2O)O[C@H](CO)[C@@H](O[C@@H]2O[C@H](CO)[C@H](O)[C@H](O)[C@H]2O)[C@@H]1O (stereo partly drawn) [Galβ1,4GlcNAcβ 1,3Gal β1,4Glc] | 10 to 100 | – | – | – | – | – | –
CC(=O)N[C@H]1[C@H](OCCCN)O[C@H](CO)[C@@H](O[C@@H]2O[C@H](CO[C@@H]3O[C@H](CO)[C@@H](O)[C@H](O)[C@H]3NC(C)=O)[C@H](O)[C@H](O[C@@H]3O[C@H](CO)[C@@H](O)[C@H](O)[C@H]3NC(C)=O)[C@H]2O)[C@@H]1O [GlcNAcβ1,3(GlcNAcβ1,6)Galβ1,4GlcNAcβ-Sp8] | – | 41,907 (4,694) RFU | 37,083 (5,973) RFU | 17,195 (3,442) RFU | 21,630 (2,490) RFU | 44,391 (3,949) RFU | –
CO[C@H]1O[C@H](CO)[C@@H](O)[C@H](O)[C@H]1NC(C)=O [Me α N-acetylglucosamine] | – | – | – | – | – | – | 9.8
CO[C@@H]1O[C@H](CO)[C@@H](O)[C@H](O)[C@H]1NC(C)=O [Me β N-acetylglucosamine] | 1 to 10 | – | – | – | – | – | 1.2
Gal β1,4 GlcNAc | 1 to 10 | – | – | – | – | – | –
GalNAcβ1,3GalNAcα-Sp8 | – | 50,791 (5,749) RFU | 10,691 (3,009) RFU | 11,034 (1204) RFU | 17,169 (4,228) RFU | – | –
GlcNAcβ1,3(GlcNAcβ1,6)GalNAcα-Sp8 | – | 46,840 (6,520) RFU | – | 23,756 (2,105) RFU | 12,183 (1,524) RFU | 35,858 (4,079) RFU | –
GlcNAcβ1,6(Galβ1,3)GalNAcα-Sp8 | – | – | 3,206(997) RFU | 3,492 (658) RFU | 6,017 (587) RFU | 12,541 (1,115) RFU | –
